Measurements as given in patent publication US9493537B2, “Compounds with reduced ring size for use in diagnosing and treating melanoma, including metastatic melanoma and methods related to same” (STC.UNM, priority 2009, dated 2016).
Where two headings read alike, the source gives them in different places.

Experiment: Biodistribution in B16/F1 melanoma-bearing C57 mice
Type: in vivo
Conditions: female, C57, mouse, iv, total radioactivity
Procedure: All the animal studies were conducted in compliance with Institutional Animal Care and Use Committee approval. The mice were housed five animals per cage in sterile micro-isolator cages in a temperature- and humidity-controlled room with a 12-h light/12-h dark schedule. […] C57 mice were subcutaneously inoculated on the right flank with 1×10^6 B16/F1 cells. The weight of tumors reached approximately 0.2 g 10 days post cell inoculation. […] Groups of 5 mice were sacrificed at 0.5, 2, 4 and 24 h post-injection, and tumors and organs of interest were harvested, weighed and counted. Blood values were taken as 6.5% of the whole-body weight. […] The mice were sacrificed at 2 h post-injection. The tumor and organs of interest were harvested, weighed and counted.
All animal studies were conducted in compliance with Institutional Animal Care and Use Committee approval. The pharmacokinetics of ^111In-DOTA-GGNle-CycMSHhex and ^111In-DOTA-GENle-CycMSHhex were determined in B16/F1 melanoma-bearing C57 female mice (Harlan, Indianapolis, Ind.). The C57 mice were subcutaneously inoculated with 1×10^6 B16/F1 cells on the right flank for each mouse to generate B16/F1 melanomas. Ten days post inoculation, the tumor weights reached approximately 0.2 g. Each melanoma-bearing mouse was injected with 0.037 MBq of ^111In-DOTA-GGNle-CycMSHhex or ^111In-DOTA-GENle-CycMSHhex via the tail vein. Groups of 5 mice were sacrificed at 0.5, 2, 4 and 24 h post-injection, and tumors and organs of interest were harvested, weighed and counted. Blood values were taken as 6.5% of the whole-body weight. The specificities of the tumor uptake of ^111In-DOTA-GGNle-CycMSHhex and ^111In-DOTA-GENle-CycMSHhex were determined by co-injecting 10 μg (6.07 nmol) of unlabeled NDP-MSH which is a linear α-MSH peptide analogue with picomolar MC1 receptor binding affinity.

CCCC[C@H](NC(=O)CN1CCN(CC(=O)O)CCN(CC(=O)O)CCN(CC(=O)O)CC1)C(=O)N[C@H]1CC(=O)NCCCC[C@@H](C(N)=O)NC(=O)[C@H](Cc2c[nH]c3ccccc23)NC(=O)[C@H](CCCNC(=N)N)NC(=O)[C@@H](Cc2ccccc2)NC(=O)[C@H](Cc2c[nH]cn2)NC1=O [^111In-DOTA-Nle-CycMSHhex, metal not drawn]
tissue uptake at 0.5 h (blood, 0.037 MBq, 0.5 h post-injection, read-out: Blood uptake): 3.33 ± 0.35 %ID/g
tissue uptake at 2 h (blood, 0.037 MBq, 2 h post-injection, read-out: Blood uptake): 0.11 ± 0.07 %ID/g
tissue uptake at 4 h (blood, 0.037 MBq, 4 h post-injection, read-out: Blood uptake): 0.05 ± 0.02 %ID/g
tissue uptake at 24 h (blood, 0.037 MBq, 24 h post-injection, read-out: Blood uptake): 0.02 ± 0.01 %ID/g
tissue uptake at 2 h (blood, 2 h post-injection, L-lysine co-injection, read-out: Blood uptake): 0.92 ± 0.48 %ID/g
tissue uptake at 2 h (blood, 2 h post-injection, NDP blockade, read-out: Blood uptake): 0.07 ± 0.05 %ID/g
tissue uptake at 0.5 h (bone, 0.037 MBq, 0.5 h post-injection, read-out: Bone uptake): 1.34 ± 0.4 %ID/g
tissue uptake at 2 h (bone, 0.037 MBq, 2 h post-injection, read-out: Bone uptake): 0.18 ± 0.1 %ID/g
tissue uptake at 4 h (bone, 0.037 MBq, 4 h post-injection, read-out: Bone uptake): 0.22 ± 0.15 %ID/g
tissue uptake at 24 h (bone, 0.037 MBq, 24 h post-injection, read-out: Bone uptake): 0.16 ± 0.03 %ID/g
tissue uptake at 2 h (bone, 2 h post-injection, L-lysine co-injection, read-out: Bone uptake): 0.55 ± 0.14 %ID/g
tissue uptake at 2 h (bone, 2 h post-injection, NDP blockade, read-out: Bone uptake): 0.05 ± 0.04 %ID/g
tissue uptake at 0.5 h (brain, 0.037 MBq, 0.5 h post-injection, read-out: Brain uptake): 0.21 ± 0.07 %ID/g
tissue uptake at 2 h (brain, 0.037 MBq, 2 h post-injection, read-out: Brain uptake): 0.02 ± 0.01 %ID/g
tissue uptake at 4 h (brain, 0.037 MBq, 4 h post-injection, read-out: Brain uptake): 0.06 ± 0.03 %ID/g
tissue uptake at 24 h (brain, 0.037 MBq, 24 h post-injection, read-out: Brain uptake): 0.03 ± 0.01 %ID/g
tissue uptake at 2 h (brain, 2 h post-injection, L-lysine co-injection, read-out: Brain uptake): 0.04 ± 0.01 %ID/g
tissue uptake at 2 h (brain, 2 h post-injection, NDP blockade, read-out: Brain uptake): 0.01 ± 0.01 %ID/g
tissue uptake at 0.5 h (heart, 0.037 MBq, 0.5 h post-injection, read-out: Heart uptake): 1.24 ± 0.15 %ID/g
tissue uptake at 2 h (heart, 0.037 MBq, 2 h post-injection, read-out: Heart uptake): 0.16 ± 0.1 %ID/g
tissue uptake at 4 h (heart, 0.037 MBq, 4 h post-injection, read-out: Heart uptake): 0.12 ± 0.03 %ID/g
tissue uptake at 24 h (heart, 0.037 MBq, 24 h post-injection, read-out: Heart uptake): 0.07 ± 0.05 %ID/g
tissue uptake at 2 h (heart, 2 h post-injection, L-lysine co-injection, read-out: Heart uptake): 0.37 ± 0.02 %ID/g
tissue uptake at 2 h (heart, 2 h post-injection, NDP blockade, read-out: Heart uptake): 0.06 ± 0.02 %ID/g
tissue uptake dose at 0.5 h (intestines, 0.037 MBq, 0.5 h post-injection, read-out: Intestines, percent injected dose): 2.16 ± 0.28 %ID
tissue uptake dose at 2 h (intestines, 0.037 MBq, 2 h post-injection, read-out: Intestines, percent injected dose): 1.4 ± 0.56 %ID
tissue uptake dose at 4 h (intestines, 0.037 MBq, 4 h post-injection, read-out: Intestines, percent injected dose): 3.03 ± 1.06 %ID
tissue uptake dose at 24 h (intestines, 0.037 MBq, 24 h post-injection, read-out: Intestines, percent injected dose): 1.41 ± 0.86 %ID
tissue uptake dose at 2 h (intestines, 2 h post-injection, L-lysine co-injection, read-out: Intestines, percent injected dose): 1.85 ± 0.73 %ID
tissue uptake dose at 2 h (intestines, 2 h post-injection, NDP blockade, read-out: Intestines, percent injected dose): 1.14 ± 0.47 %ID
tissue uptake at 0.5 h (kidneys, 0.037 MBq, 0.5 h post-injection, read-out: Kidneys uptake): 16.2 ± 4.32 %ID/g
tissue uptake at 2 h (kidneys, 0.037 MBq, 2 h post-injection, read-out: Kidneys uptake): 9.52 ± 0.44 %ID/g
tissue uptake at 4 h (kidneys, 0.037 MBq, 4 h post-injection, read-out: Kidneys uptake): 9.99 ± 1.39 %ID/g
tissue uptake at 24 h (kidneys, 0.037 MBq, 24 h post-injection, read-out: Kidneys uptake): 9.31 ± 0.91 %ID/g
tissue uptake at 2 h (kidneys, 2 h post-injection, L-lysine co-injection, read-out: Kidneys uptake): 6.66 ± 0.62 %ID/g
tissue uptake at 2 h (kidneys, 2 h post-injection, NDP blockade, read-out: Kidneys uptake): 11.6 ± 0.56 %ID/g
tissue uptake at 0.5 h (liver, 0.037 MBq, 0.5 h post-injection, read-out: Liver uptake): 2.75 ± 0.26 %ID/g
tissue uptake at 2 h (liver, 0.037 MBq, 2 h post-injection, read-out: Liver uptake): 1.46 ± 0.2 %ID/g
tissue uptake at 4 h (liver, 0.037 MBq, 4 h post-injection, read-out: Liver uptake): 1.72 ± 0.07 %ID/g
tissue uptake at 24 h (liver, 0.037 MBq, 24 h post-injection, read-out: Liver uptake): 1.89 ± 0.14 %ID/g
tissue uptake at 2 h (liver, 2 h post-injection, L-lysine co-injection, read-out: Liver uptake): 1.42 ± 0.3 %ID/g
tissue uptake at 2 h (liver, 2 h post-injection, NDP blockade, read-out: Liver uptake): 1.46 ± 0.08 %ID/g
tissue uptake at 0.5 h (lung, 0.037 MBq, 0.5 h post-injection, read-out: Lung uptake): 2.45 ± 0.83 %ID/g
tissue uptake at 2 h (lung, 0.037 MBq, 2 h post-injection, read-out: Lung uptake): 0.32 ± 0.1 %ID/g
tissue uptake at 4 h (lung, 0.037 MBq, 4 h post-injection, read-out: Lung uptake): 0.1 ± 0.05 %ID/g
tissue uptake at 24 h (lung, 0.037 MBq, 24 h post-injection, read-out: Lung uptake): 0.1 ± 0.03 %ID/g
tissue uptake at 2 h (lung, 2 h post-injection, L-lysine co-injection, read-out: Lung uptake): 0.75 ± 0.21 %ID/g
tissue uptake at 2 h (lung, 2 h post-injection, NDP blockade, read-out: Lung uptake): 0.3 ± 0.06 %ID/g
tissue uptake at 0.5 h (muscle, 0.037 MBq, 0.5 h post-injection, read-out: Muscle uptake): 0.6 ± 0.22 %ID/g
tissue uptake at 2 h (muscle, 0.037 MBq, 2 h post-injection, read-out: Muscle uptake): 0.15 ± 0.08 %ID/g
tissue uptake at 4 h (muscle, 0.037 MBq, 4 h post-injection, read-out: Muscle uptake): 0.1 ± 0.08 %ID/g
tissue uptake at 24 h (muscle, 0.037 MBq, 24 h post-injection, read-out: Muscle uptake): 0.03 ± 0.01 %ID/g
tissue uptake at 2 h (muscle, 2 h post-injection, L-lysine co-injection, read-out: Muscle uptake): 0.1 ± 0.08 %ID/g
tissue uptake at 2 h (muscle, 2 h post-injection, NDP blockade, read-out: Muscle uptake): 0.02 ± 0.01 %ID/g
tissue uptake at 0.5 h (pancreas, 0.037 MBq, 0.5 h post-injection, read-out: Pancreas uptake): 1.18 ± 0.38 %ID/g
tissue uptake at 2 h (pancreas, 0.037 MBq, 2 h post-injection, read-out: Pancreas uptake): 0.14 ± 0.02 %ID/g
tissue uptake at 4 h (pancreas, 0.037 MBq, 4 h post-injection, read-out: Pancreas uptake): 0.16 ± 0.02 %ID/g
tissue uptake at 24 h (pancreas, 0.037 MBq, 24 h post-injection, read-out: Pancreas uptake): 0.23 ± 0.08 %ID/g
tissue uptake at 2 h (pancreas, 2 h post-injection, L-lysine co-injection, read-out: Pancreas uptake): 0.21 ± 0.05 %ID/g
tissue uptake at 2 h (pancreas, 2 h post-injection, NDP blockade, read-out: Pancreas uptake): 0.12 ± 0.02 %ID/g
tissue uptake at 0.5 h (skin, 0.037 MBq, 0.5 h post-injection, read-out: Skin uptake): 4.11 ± 0.72 %ID/g
tissue uptake at 2 h (skin, 0.037 MBq, 2 h post-injection, read-out: Skin uptake): 0.66 ± 0.23 %ID/g
tissue uptake at 4 h (skin, 0.037 MBq, 4 h post-injection, read-out: Skin uptake): 0.53 ± 0.05 %ID/g
tissue uptake at 24 h (skin, 0.037 MBq, 24 h post-injection, read-out: Skin uptake): 0.64 ± 0.16 %ID/g
tissue uptake at 2 h (skin, 2 h post-injection, L-lysine co-injection, read-out: Skin uptake): 1.02 ± 0.09 %ID/g
tissue uptake at 2 h (skin, 2 h post-injection, NDP blockade, read-out: Skin uptake): 0.29 ± 0.02 %ID/g
tissue uptake at 0.5 h (spleen, 0.037 MBq, 0.5 h post-injection, read-out: Spleen uptake): 1.09 ± 0.33 %ID/g
tissue uptake at 2 h (spleen, 0.037 MBq, 2 h post-injection, read-out: Spleen uptake): 0.41 ± 0.13 %ID/g
tissue uptake at 4 h (spleen, 0.037 MBq, 4 h post-injection, read-out: Spleen uptake): 0.47 ± 0.13 %ID/g
tissue uptake at 24 h (spleen, 0.037 MBq, 24 h post-injection, read-out: Spleen uptake): 0.32 ± 0.08 %ID/g
tissue uptake at 2 h (spleen, 2 h post-injection, L-lysine co-injection, read-out: Spleen uptake): 0.43 ± 0.07 %ID/g
tissue uptake at 2 h (spleen, 2 h post-injection, NDP blockade, read-out: Spleen uptake): 0.44 ± 0.02 %ID/g
tissue uptake at 0.5 h (stomach, 0.037 MBq, 0.5 h post-injection, read-out: Stomach uptake): 3.2 ± 0.98 %ID/g
tissue uptake at 2 h (stomach, 0.037 MBq, 2 h post-injection, read-out: Stomach uptake): 1.25 ± 0.24 %ID/g
tissue uptake at 4 h (stomach, 0.037 MBq, 4 h post-injection, read-out: Stomach uptake): 1.49 ± 0.12 %ID/g
tissue uptake at 24 h (stomach, 0.037 MBq, 24 h post-injection, read-out: Stomach uptake): 1.34 ± 0.42 %ID/g
tissue uptake at 2 h (stomach, 2 h post-injection, L-lysine co-injection, read-out: Stomach uptake): 1.64 ± 0.78 %ID/g
tissue uptake at 2 h (stomach, 2 h post-injection, NDP blockade, read-out: Stomach uptake): 0.36 ± 0.14 %ID/g
tissue uptake at 0.5 h (tumor, 0.037 MBq, 0.5 h post-injection, read-out: Tumor uptake): 24.9 ± 4.58 %ID/g
tissue uptake at 2 h (tumor, 0.037 MBq, 2 h post-injection, read-out: Tumor uptake): 19.4 ± 1.65 %ID/g
tissue uptake at 4 h (tumor, 0.037 MBq, 4 h post-injection, read-out: Tumor uptake): 17 ± 2.54 %ID/g
tissue uptake at 24 h (tumor, 0.037 MBq, 24 h post-injection, read-out: Tumor uptake): 10.5 ± 1.11 %ID/g
tissue uptake at 2 h (tumor, 2 h post-injection, L-lysine co-injection, read-out: Tumor uptake): 14.5 ± 3.25 %ID/g
tissue uptake at 2 h (tumor, 2 h post-injection, NDP blockade, read-out: Tumor uptake): 0.81 ± 0.03 %ID/g
dose excreted at 2 h (urine, 0.037 MBq, 2 h post-injection, read-out: Urine, percent injected dose): 82.2 ± 5.83%
